Laboratory results as given in patent US20230002346A1, “NEW COMPOUNDS AND METHODS” (BenevolentAl Bio Limited, priority 2019, published 2023).

Tests used:
[1] = Rat PK profile (bioavailability, clearance, half-life); assay type: in vivo; settings: male, Sprague Dawley, plasma, i.v. dose 1 mg/kg
Method: Male Sprague Dawley Rats 300-350 g (Charles River, UK) were group housed, n=3, under a 12 h light/dark cycle with food and water available ad libitum. At 17:00 on the day prior to dosing all food was removed. On the day of dosing animals were weighed, tail marked and dosed via oral gavage with compound at 3 mg/kg in a volume of 5 mL/kg. Animals were culled at 30 min, 1 h and 4 h post dose via intra-peritoneal administration of pentobarbital. Post mortem blood was withdrawn via cardiac puncture, and briefly stored in K2 EDTA blood tubes on ice before being spun at 14,000 g for 4 min at 4° C. Plasma was withdrawn into a 96 well plate, placed on dry ice and stored at −80° C. Brains were quickly dissected and placed on dry ice before storage at −80° C. Bioanalysis of plasma and brain samples is performed as detailed below. Methods were prepared with guidance from industry standard documents.^i,ii
A 10 mM DMSO stock is used to prepare spiking solutions of test compound in the range of 10-100,000 ng/mL in diluent (MeCN:water, 1;1). Calibration lines are prepared in control male Sprague-Dawley Rat plasma at known concentrations in the range of 1-10000 ng/mL by spiking 2.5 μL of calibration spiking solution into 25 μL control plasma. Experimental samples are thawed to RT and 25 μL aliquots are extracted alongside the calibration lines using protein precipitation (agitation for at least 5 min at RT with 400 μL of MeCN containing 25 ng/mL tolbutamide as an internal standard). Protein precipitates are separated from the extracted test compound by centrifugation at 4000 rpm for 5 min, 4° C. The resulting supernatants are diluted in a ratio of 1:2 with a relevant diluent (e.g. 0.1% formic acid in water or 1:1 MeOH:water). Samples are analysed by UPLC-MS/MS on either an API6500 QTrap or Waters 30 TQS mass spectrometer using previously optimised analytical MRM (multiple reaction monitoring) methods, specific to the test compound. The concentration of test compound in isolated samples is determined following analysis of the samples against the two replicates of the calibration line, injected before and after the sample set with an appropriate regression and weighting used. Only samples within 20% of the expected test concentration are included in the calibration line and any samples that fall outside of the limits of the calibration line will be deemed to be less than or above the limit of quantification (LLoQ/ALoQ).
Pharmacokinetic parameters such as bioavailability (% F), clearance (CL), half-life (T½) and volume of distribution are calculated by non-compartmental analysis using Phoenix Winnonlin 64 software (build 8.0). The bioavailability was calculated from p.o. dosed rats, whereas the clearance and half-life were calculated from i.v. dosed rats. Briefly, in vivo plasma concentrations, timepoints and dose values are imported into the software in a compatible format. Plasma concentration for each animal is plotted against time, and the elimination phase identified and selected. The area under the curve for each plot is calculated using a linear trapezoidal linear interpolation from which pharmacokinetic parameters can subsequently be determined. […] Compounds of the invention have much improved clearance (CL) and half-life (T½) compared to the reference examples.

hERG channel = target: T1, hERG channel (Homo sapiens, UniProt Q12809); assay: hERG assay (QPatch automated patch clamp, CHO cells); assay type: cell-based; settings: CHO cells expressing hERG, whole-cell patch clamp, 0.003 μM to 10 μM
T1 construct: expressed in transfected cells
How it was run: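 Whole-cell QPatch recordings at room temperature on CHO cells stably expressing hERG, "+40/−40" protocol from −90 mV holding, 0.1 Hz. Eight cumulative concentrations (0.003–10 μM) on one cell after 0.1% DMSO vehicle; tail-current inhibition versus vehicle fitted to four-parameter logistic, Hill slopes 0.5–2.0 accepted; mean of N≥3 cells.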

T1 sequence (Q12809 whole entry): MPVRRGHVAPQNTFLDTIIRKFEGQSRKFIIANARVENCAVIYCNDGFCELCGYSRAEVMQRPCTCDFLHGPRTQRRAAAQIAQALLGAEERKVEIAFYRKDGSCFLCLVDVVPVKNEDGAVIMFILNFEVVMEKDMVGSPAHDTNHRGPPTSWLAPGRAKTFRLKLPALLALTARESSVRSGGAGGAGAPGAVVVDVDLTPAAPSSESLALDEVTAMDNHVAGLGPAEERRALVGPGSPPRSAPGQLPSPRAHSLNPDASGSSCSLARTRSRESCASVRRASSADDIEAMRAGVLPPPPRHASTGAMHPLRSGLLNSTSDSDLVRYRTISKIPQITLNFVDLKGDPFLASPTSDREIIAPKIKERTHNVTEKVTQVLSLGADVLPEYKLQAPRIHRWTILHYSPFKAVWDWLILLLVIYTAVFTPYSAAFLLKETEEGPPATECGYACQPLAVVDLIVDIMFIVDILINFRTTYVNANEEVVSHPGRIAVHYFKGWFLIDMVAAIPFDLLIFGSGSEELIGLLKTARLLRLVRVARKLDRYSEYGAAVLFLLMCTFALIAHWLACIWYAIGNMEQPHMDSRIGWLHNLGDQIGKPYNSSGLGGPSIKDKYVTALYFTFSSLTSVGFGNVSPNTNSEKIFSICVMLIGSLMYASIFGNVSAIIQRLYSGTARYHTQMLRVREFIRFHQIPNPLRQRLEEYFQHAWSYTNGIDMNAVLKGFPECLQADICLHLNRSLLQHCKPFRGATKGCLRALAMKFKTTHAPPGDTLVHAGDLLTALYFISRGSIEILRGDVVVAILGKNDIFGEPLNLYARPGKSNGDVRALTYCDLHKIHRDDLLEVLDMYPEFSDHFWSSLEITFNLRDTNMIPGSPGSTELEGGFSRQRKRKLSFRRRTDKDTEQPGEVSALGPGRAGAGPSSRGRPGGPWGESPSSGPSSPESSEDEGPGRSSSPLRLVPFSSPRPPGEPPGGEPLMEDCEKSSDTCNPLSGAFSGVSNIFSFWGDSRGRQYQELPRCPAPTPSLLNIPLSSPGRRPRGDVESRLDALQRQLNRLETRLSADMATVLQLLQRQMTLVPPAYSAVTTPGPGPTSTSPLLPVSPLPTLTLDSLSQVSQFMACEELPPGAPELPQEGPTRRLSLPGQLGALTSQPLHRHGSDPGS

clearance ([1]; iv): 1.9 mL/min/kg
half-life ([1]; iv, read-out: T½ (converted)): 20 h
bioavailability ([1]; po, p.o. dose 3 mg/kg): 97%
SMILES: O=C(Nc1ccc(OC(F)(F)Cl)cc1)c1ccc(=O)n(-c2ccccc2)c1 [Example 56, N-[4-[Chloro(difluoro)methoxy]phenyl]-6-oxo-1-phenyl-pyridine-3-carboxamide]
IC50 (hERG channel): > 10 µM
